Measurements as given in patent publication US20250263395A1, “COMPOUNDS THAT MEDIATE PROTEIN DEGRADATION AND METHODS OF USE THEREOF” (Monte Rosa Therapeutics AG, priority 2022, published 2025).

Key:
CRBN-DDB1 = CRBN-DDB1 (Homo sapiens (Human), UniProt Q96SW2); assay: CRBN HTRF assay (Cy5-Thalidomide probe displacement); format: binding; details: CRBN-DDB1 2.5 nM, Cy5-Thalidomide 100 nM, 30 min; Ki from geometric mean IC50 by Cheng-Prusoff
Method in brief: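 HTRF displacement of Cy5-thalidomide probe (100 nM) from His-CRBN-DDB1 (2.5 nM) with anti-His terbium cryptate, in HEPES/NaCl/TCEP/EDTA/Tween20 buffer. 10-point 1:3 compound series, 30 min at ambient temperature; signal normalised to DMSO and lenalidomide controls, IC50 fitted and Ki derived by Cheng-Prusoff.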

CDK2 = CDK2 (Homo sapiens (Human), UniProt P24941); assay: CDK2 NanoBiT assay (HiBiT-tagged CDK2 degradation); format: cell-based; details: HEK293, HEK293 clonal line, C-terminal HiBiT tag on CDK2, LgBiT; 24 hours
Method in brief: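 HEK293 line with CRISPR knock-in C-terminal HiBiT-tagged CDK2 and stable LgBiT, preincubated 16 h with live-cell substrate, then compound-treated 24 h at 37° C, 5% CO2 (30 μM stock). Luminescence normalized to plate negative and positive controls; EC50 from 3-parameter logistic fit, Hill slope 1.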

Sequence of CRBN-DDB1 (Q96SW2 whole entry): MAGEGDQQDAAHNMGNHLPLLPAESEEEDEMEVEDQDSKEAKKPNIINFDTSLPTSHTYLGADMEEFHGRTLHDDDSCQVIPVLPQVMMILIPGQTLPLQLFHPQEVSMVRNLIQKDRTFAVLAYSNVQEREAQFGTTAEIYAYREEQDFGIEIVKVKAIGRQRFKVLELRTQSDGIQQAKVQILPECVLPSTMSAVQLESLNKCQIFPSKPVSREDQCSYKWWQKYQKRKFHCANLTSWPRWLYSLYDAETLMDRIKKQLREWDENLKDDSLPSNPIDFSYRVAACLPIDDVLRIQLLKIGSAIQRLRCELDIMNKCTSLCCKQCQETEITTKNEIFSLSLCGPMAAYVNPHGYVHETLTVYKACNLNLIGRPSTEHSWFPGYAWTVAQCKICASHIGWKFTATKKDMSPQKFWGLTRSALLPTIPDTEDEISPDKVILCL
Sequence of CRBN-DDB1 (Q16531 whole entry partner): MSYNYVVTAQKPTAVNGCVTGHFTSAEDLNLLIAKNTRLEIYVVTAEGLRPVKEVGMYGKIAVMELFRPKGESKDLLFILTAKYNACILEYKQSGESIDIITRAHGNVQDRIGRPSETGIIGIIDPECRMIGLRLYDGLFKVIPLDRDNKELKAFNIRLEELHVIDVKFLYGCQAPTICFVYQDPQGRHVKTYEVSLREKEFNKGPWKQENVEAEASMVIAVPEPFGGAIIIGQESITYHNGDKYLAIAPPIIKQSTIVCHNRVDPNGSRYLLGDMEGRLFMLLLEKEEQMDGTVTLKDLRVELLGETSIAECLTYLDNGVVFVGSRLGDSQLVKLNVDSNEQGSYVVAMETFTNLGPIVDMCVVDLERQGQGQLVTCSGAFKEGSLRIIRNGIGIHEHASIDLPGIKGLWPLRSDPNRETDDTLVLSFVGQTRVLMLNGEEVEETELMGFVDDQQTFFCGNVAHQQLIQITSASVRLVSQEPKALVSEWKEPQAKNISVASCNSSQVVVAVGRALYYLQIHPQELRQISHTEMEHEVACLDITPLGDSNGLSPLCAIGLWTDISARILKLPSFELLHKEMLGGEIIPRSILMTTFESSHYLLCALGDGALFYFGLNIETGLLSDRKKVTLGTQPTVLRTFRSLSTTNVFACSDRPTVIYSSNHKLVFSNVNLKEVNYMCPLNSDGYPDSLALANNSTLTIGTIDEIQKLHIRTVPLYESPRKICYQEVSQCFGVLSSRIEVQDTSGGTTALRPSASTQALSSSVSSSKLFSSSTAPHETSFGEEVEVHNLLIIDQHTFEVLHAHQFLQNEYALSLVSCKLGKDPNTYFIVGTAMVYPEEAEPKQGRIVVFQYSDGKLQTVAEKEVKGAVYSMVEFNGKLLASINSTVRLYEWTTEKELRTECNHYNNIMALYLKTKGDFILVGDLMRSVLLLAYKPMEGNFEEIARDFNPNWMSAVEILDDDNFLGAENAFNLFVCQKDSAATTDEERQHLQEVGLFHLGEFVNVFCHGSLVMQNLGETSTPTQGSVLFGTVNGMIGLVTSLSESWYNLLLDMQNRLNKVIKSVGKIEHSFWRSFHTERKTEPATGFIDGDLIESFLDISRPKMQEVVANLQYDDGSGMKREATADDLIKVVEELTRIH

Ki (CRBN-DDB1) | Dmax (CDK2) | Compound
100 to 1000 nM | 10 to 50% | Cc1cc(N2CC(NC(=O)OC3CN(C(=O)N(C)C4CC4)C3)C2)cc(C)c1C1CCC(=O)NC1=O (stereo not drawn) [Compound 86, 1-(cyclopropyl(methyl)carbamoyl)azetidin-3-yl (1-(4-(2,6-dioxopiperidin-3-yl)-3,5-dimethylphenyl)azetidin-3-yl)carbamate]
100 to 1000 nM | 50 to 80% | Cc1cc(N2CC(NC(=O)OC3CN(C(=O)N(C)C4CC4)C3)C2)cc(Cl)c1C1CCC(=O)NC1=O (stereo not drawn) [Compound 87, 1-(cyclopropyl(methyl)carbamoyl)azetidin-3-yl (1-(3-chloro-4-(2,6-dioxopiperidin-3-yl)-5-methylphenyl)azetidin-3-yl)carbamate]
≤ 100 nM | 50 to 80% | CN(C(=O)N1CCC(OC(=O)NC2CN(c3cc(F)c(C4CCC(=O)NC4=O)c(F)c3)C2)CC1)C1CC1 (stereo not drawn) [Compound 88, 1-(cyclopropyl(methyl)carbamoyl)piperidin-4-yl (1-(4-(2,6-dioxopiperidin-3-yl)-3,5-difluorophenyl)azetidin-3-yl)carbamate]
> 1000 nM | 50 to 80% | N#Cc1cc(C2CCC(=O)NC2=O)ccc1N1CC(Nc2nnc(C3CC4(CCC4)C3)o2)C1 (stereo not drawn) [Compound 89, 5-(2,6-dioxopiperidin-3-yl)-2-(3-((5-(spiro[3.3]heptan-2-yl)-1,3,4-oxadiazol-2-yl)amino)azetidin-1-yl)benzonitrile]
100 to 1000 nM | > 80% | COc1c(N2CC(Nc3nnc(-c4ccc(OC(F)(F)F)cc4)o3)C2)ccc(C2CCC(=O)NC2=O)c1F (stereo not drawn) [Compound 90, 3-(2-fluoro-3-methoxy-4-(3-((5-(4-(trifluoromethoxy)phenyl)-1,3,4-oxadiazol-2-yl)amino)azetidin-1-yl)phenyl)piperidine-2,6-dione]
100 to 1000 nM | > 80% | COc1c(N2CC(Nc3nnc(C4CC5(CCC5)C4)o3)C2)ccc(C2CCC(=O)NC2=O)c1Cl (stereo not drawn) [Compound 91, 3-(2-chloro-3-methoxy-4-(3-((5-(spiro[3.3]heptan-2-yl)-1,3,4-oxadiazol-2-yl)amino)azetidin-1-yl)phenyl)piperidine-2,6-dione]
≤ 100 nM | 50 to 80% | O=C1CCC(c2c(F)cc(N3C[C@H](Nc4nnc(C5CC6(CCC6)C5)o4)CC3=O)cc2F)C(=O)N1 (stereo partly drawn) [Compound 92, 3-(2,6-difluoro-4-((R)-2-oxo-4-((5-(spiro[3.3]heptan-2-yl)-1,3,4-oxadiazol-2-yl)amino)pyrrolidin-1-yl)phenyl)piperidine-2,6-dione]
100 to 1000 nM | > 80% | O=C1CCC(c2c(F)cc(N3CC(Nc4nnc(-c5ccc(Cl)cc5)o4)C3)cc2F)C(=O)N1 (stereo not drawn) [Compound 93, 3-(4-(3-((5-(4-chlorophenyl)-1,3,4-oxadiazol-2-yl)amino)azetidin-1-yl)-2,6-difluorophenyl)piperidine-2,6-dione]
100 to 1000 nM | > 80% | COc1c(N2CC(Nc3nnc(C4CC5(CCC5)C4)o3)C2)ccc(C2CCC(=O)NC2=O)c1F (stereo not drawn) [Compound 94, 3-(2-fluoro-3-methoxy-4-(3-((5-(spiro[3.3]heptan-2-yl)-1,3,4-oxadiazol-2-yl)amino)azetidin-1-yl)phenyl)piperidine-2,6-dione]
≤ 100 nM | > 80% | N#Cc1ccc(-c2nnc(NC3CN(c4cc(F)c(C5CCC(=O)NC5=O)c(F)c4)C3)o2)cc1 (stereo not drawn) [Compound 95, 4-(5-((1-(4-(2,6-dioxopiperidin-3-yl)-3,5-difluorophenyl)azetidin-3-yl)amino)-1,3,4-oxadiazol-2-yl)benzonitrile]
≤ 100 nM | > 80% | Cc1ccccc1-c1nnc(NC2CN(c3cc(F)c(C4CCC(=O)NC4=O)c(F)c3)C2)o1 (stereo not drawn) [Compound 96, 3-(2,6-difluoro-4-(3-((5-(o-tolyl)-1,3,4-oxadiazol-2-yl)amino)azetidin-1-yl)phenyl)piperidine-2,6-dione]
100 to 1000 nM | > 80% | Cc1cccc(-c2nnc(NC3CN(c4cc(F)c(C5CCC(=O)NC5=O)c(F)c4)C3)o2)c1 (stereo not drawn) [Compound 97, 3-(2,6-difluoro-4-(3-((5-(m-tolyl)-1,3,4-oxadiazol-2-yl)amino)azetidin-1-yl)phenyl)piperidine-2,6-dione]
≤ 100 nM | > 80% | COc1ccc(-c2nnc(NC3CN(c4cc(F)c(C5CCC(=O)NC5=O)c(F)c4)C3)o2)cc1 (stereo not drawn) [Compound 98, 3-(2,6-difluoro-4-(3-((5-(4-methoxyphenyl)-1,3,4-oxadiazol-2-yl)amino)azetidin-1-yl)phenyl)piperidine-2,6-dione]
100 to 1000 nM | > 80% | Cc1ccc(-c2nnc(NC3CN(c4cc(F)c(C5CCC(=O)NC5=O)c(F)c4)C3)o2)cc1 (stereo not drawn) [Compound 99, 3-(2,6-difluoro-4-(3-((5-(p-tolyl)-1,3,4-oxadiazol-2-yl)amino)azetidin-1-yl)phenyl)piperidine-2,6-dione]
≤ 100 nM | 50 to 80% | O=C1CCC(c2c(F)cc(N3CC(Nc4nnc(Cc5ccccc5)o4)C3)cc2F)C(=O)N1 (stereo not drawn) [Compound 100, 3-(4-(3-((5-benzyl-1,3,4-oxadiazol-2-yl)amino)azetidin-1-yl)-2,6-difluorophenyl)piperidine-2,6-dione]
≤ 100 nM | 50 to 80% | CC1(Nc2nnc(C3CC4(CCC4)C3)o2)CN(c2cc(F)c(C3CCC(=O)NC3=O)c(F)c2)C1 (stereo not drawn) [Compound 101, 3-(2,6-difluoro-4-(3-methyl-3-((5-(spiro[3.3]heptan-2-yl)-1,3,4-oxadiazol-2-yl)amino)azetidin-1-yl)phenyl)piperidine-2,6-dione]
≤ 100 nM | > 80% | O=C1CCC(c2c(Cl)cc(N3CC(Nc4nnc(C5CC6(CCC6)C5)o4)C3)cc2Cl)C(=O)N1 (stereo not drawn) [Compound 102, 3-(2,6-dichloro-4-(3-((5-(spiro[3.3]heptan-2-yl)-1,3,4-oxadiazol-2-yl)amino)azetidin-1-yl)phenyl)piperidine-2,6-dione]
≤ 100 nM | > 80% | O=C1CCC(c2c(F)cc(N3CC(Nc4nnc(-c5ccc(OC(F)(F)F)cc5)o4)C3)cc2F)C(=O)N1 (stereo not drawn) [Compound 103, 3-(2,6-difluoro-4-(3-((5-(4-(trifluoromethoxy)phenyl)-1,3,4-oxadiazol-2-yl)amino)azetidin-1-yl)phenyl)piperidine-2,6-dione]
≤ 100 nM | > 80% | O=C1CCC(c2c(F)cc(N3CC(Nc4nnc(-c5ccccc5)o4)C3)cc2F)C(=O)N1 (stereo not drawn) [Compound 104, 3-(2,6-difluoro-4-(3-((5-phenyl-1,3,4-oxadiazol-2-yl)amino)azetidin-1-yl)phenyl)piperidine-2,6-dione]
100 to 1000 nM | 50 to 80% | O=C1CCC(c2c(F)cc(N3CC(Nc4ncn(C5CC6(CCC6)C5)n4)C3)cc2F)C(=O)N1 (stereo not drawn) [Compound 105, 3-(2,6-difluoro-4-(3-((1-(spiro[3.3]heptan-2-yl)-1H-1,2,4-triazol-3-yl)amino)azetidin-1-yl)phenyl)piperidine-2,6-dione]
≤ 100 nM | 50 to 80% | O=C1CCC(c2c(F)cc(N3CC(Nc4cc(C5CC6(CCC6)C5)ccn4)C3)cc2F)C(=O)N1 (stereo not drawn) [Compound 106, 3-(2,6-difluoro-4-(3-((4-(spiro[3.3]heptan-2-yl)pyridin-2-yl)amino)azetidin-1-yl)phenyl)piperidine-2,6-dione]
≤ 100 nM | > 80% | O=C1CCC(c2c(F)cc(N3CC(Nc4nnc(C5CC6(CCC6)C5)o4)C3)cc2F)C(=O)N1 (stereo not drawn) [Compound 107, 3-(2,6-difluoro-4-(3-((5-(spiro[3.3]heptan-2-yl)-1,3,4-oxadiazol-2-yl)amino)azetidin-1-yl)phenyl)piperidine-2,6-dione]
≤ 100 nM | > 80% | CN(C(=O)N1CC(OC(=S)NC2CN(c3cc(F)c(C4CCC(=O)NC4=O)c(F)c3)C2)C1)C1CC1 (stereo not drawn) [Compound 108, O-(1-(cyclopropyl(methyl)carbamoyl)azetidin-3-yl) (1-(4-(2,6-dioxopiperidin-3-yl)-3,5-difluorophenyl)azetidin-3-yl)carbamothioate]
≤ 100 nM | 10 to 50% | Cc1ccc(N(C)C(=O)N2CC(OC(=O)NC3CN(c4cc(F)c(C5CCC(=O)NC5=O)c(F)c4)C3)C2)cn1 (stereo not drawn) [Compound 109, 1-(methyl (6-methylpyridin-3-yl)carbamoyl) azetidin-3-yl (1-(4-(2,6-dioxopiperidin-3-yl)-3,5-difluorophenyl)azetidin-3-yl) carbamate]
≤ 100 nM | 10 to 50% | Cc1ccc(N(C)C(=O)N2CC(OC(=O)NC3CN(c4cc(F)c(C5CCC(=O)NC5=O)c(F)c4)C3)C2)nc1 (stereo not drawn) [Compound 110, 1-(methyl (5-methylpyridin-2-yl)carbamoyl) azetidin-3-yl (1-(4-(2,6-dioxopiperidin-3-yl)-3,5-difluorophenyl)azetidin-3-yl) carbamate]
≤ 100 nM | 10 to 50% | Cc1cc(Cl)ccc1N(C)C(=O)C12CC(OC(=O)NC3CN(c4cc(F)c(C5CCC(=O)NC5=O)c(F)c4)C3)(C1)C2 (stereo not drawn) [Compound 112, 3-((4-chloro-2-methylphenyl)(methyl)carbamoyl)bicyclo[1.1.1]pentan-1-yl (1-(4-(2,6-dioxopiperidin-3-yl)-3,5-difluorophenyl)azetidin-3-yl)carbamate]
≤ 100 nM | 10 to 50% | Cc1cc(Cl)ccc1N(C)C(=O)N1CC(OC(=O)NC2CN(c3cc(F)c(C4CCC(=O)NC4=O)c(F)c3)C2)C1 (stereo not drawn) [Compound 113, 1-((4-chloro-2-methylphenyl)(methyl)carbamoyl)azetidin-3-yl (1-(4-(2,6-dioxopiperidin-3-yl)-3,5-difluorophenyl)azetidin-3-yl)carbamate]
